Eight compounds from patent publication US20230227427A1, “IL-17A MODULATORS” (SANOFI, priority 2010, published 2023) can be followed below.

The first assay has as its target T1, human recombinant IL-17A (Homo sapiens, UniProt Q16552).
T1 construct: purchased R&D Systems 7955-IL/CF
T1 sequence (Q16552 24-155): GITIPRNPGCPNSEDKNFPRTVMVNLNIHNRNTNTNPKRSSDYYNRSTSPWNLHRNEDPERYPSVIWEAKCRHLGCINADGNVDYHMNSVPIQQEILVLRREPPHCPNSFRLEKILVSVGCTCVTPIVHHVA
Description: IL-17A AlphaLISA assay (block binding of IL-17A to its receptor IL-17RA). Particulars: compounds pre-incubated with the IL-17A for 30 min (indicated by * in Table A); read-out: AlphaLISA pIC50 (converted). The method, boiled down:
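Compounds pre-incubated 24 h at RT (30 min where flagged) with human IL-17A (7.5 nM stock) before IL-17RA/Fc (5 nM stock), 90 min. Read by AlphaLISA via anti-Fc acceptor and biotin anti-IL-17A/streptavidin donor beads, 680/615 nm. 4-parameter fit; DMSO and 6 μM reference inhibitor as controls; pIC50.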
For `CCn1nccc1C(=O)N[C@H](C(=O)Nc1ccc(-c2c(Cl)cnn2C)cn1)C1CCCCCC1` [Example 176, (S)—N-(2-((5-(4-chloro-1-methyl-1H-pyrazol-5-yl)pyridin-2-yl)amino)-1-cycloheptyl-2-oxoethyl)-1-ethyl-1H-pyrazole-5-carboxamide], the IC50 was 39.8 nM.

The assay is the same for the next values; noted with them: compounds pre-incubated with the IL-17A for 24 h at room temperature; read-out: AlphaLISA pIC50 (converted).
`Cn1nccc1C(=O)N[C@H](C(=O)Nc1ccc(-c2c[nH]c(=O)c3[nH]ccc23)cc1)C(c1ccccc1)c1ccccc1` [Example 52, (S)-1-methyl-N-(1-oxo-1-((4-(7-oxo-6,7-dihydro-1H-pyrrolo[2,3-c]pyridin-4-yl)phenyl)amino)-3,3-diphenylpropan-2-yl)-1H-pyrazole-5-carboxamide]: the IC50 is 12.6 nM.
With `Cc1nccc(-c2ccc(NC(=O)[C@@H](NC(=O)c3ccnn3C)C(c3ccccc3)c3ccccc3)cc2)c1C` [Example 1, (S)—N-(1-((4-(2,3-dimethylpyridin-4-yl)phenyl)amino)-1-oxo-3,3-diphenylpropan-2-yl)-1-methyl-1H-pyrazole-5-carboxamide], the IC50 was 50.1 nM.
The same measure, in the same setting: the result for `Cc1c(-c2ccc(NC(=O)[C@@H](NC(=O)c3ccnn3C)C(c3ccccc3)c3ccccc3)nc2)ccc(=O)n1C` [Example 72, (S)—N-(1-((1′,2′-dimethyl-6′-oxo-1′,6′-dihydro-[3,3′-bipyridin]-6-yl)amino)-1-oxo-3,3-diphenylpropan-2-yl)-1-methyl-1H-pyrazole-5-carboxamide] reads 79.4 nM; that for `CCn1nccc1C(=O)N[C@H](C(=O)Nc1ccc(-c2c[nH]nc2C)c(F)c1)C(c1ccccc1)c1ccccc1` [Example 59, (S)-1-ethyl-N-(1-((3-fluoro-4-(3-methyl-1H-pyrazol-4-yl)phenyl)amino)-1-oxo-3,3-diphenylpropan-2-yl)-1H-pyrazole-5-carboxamide], 100 nM; that for `Cn1nccc1C(=O)N[C@H](C(=O)Nc1ccc(-c2cnc(=O)n(C)c2)c(F)c1)C(c1ccccc1)c1ccccc1` [Example 63, (S)—N-(1-((3-fluoro-4-(1-methyl-2-oxo-1,2-dihydropyrimidin-5-yl)phenyl)amino)-1-oxo-3,3-diphenylpropan-2-yl)-1-methyl-1H-pyrazole-5-carboxamide], 158 nM.
Same read-out and setting: to `Cn1nccc1C(=O)N[C@H](C(=O)Nc1ccc(-c2cn[nH]c(=O)c2)c(F)c1)C(c1ccccc1)c1ccccc1` [Example 70, (S)—N-(1-((3-fluoro-4-(6-oxo-1,6-dihydropyridazin-4-yl)phenyl)amino)-1-oxo-3,3-diphenylpropan-2-yl)-1-methyl-1H-pyrazole-5-carboxamide] belongs 316 nM.
Still for that read-out and setting: the result for `Cc1nccc(-c2ccc(NC(=O)[C@@H](NC(=O)c3ccnn3C)C(c3ccccc3)c3ccccc3)cc2F)c1C` [Example 57, (S)—N-(1-((4-(2,3-dimethylpyridin-4-yl)-3-fluorophenyl)amino)-1-oxo-3,3-diphenylpropan-2-yl)-1-methyl-1H-pyrazole-5-carboxamide] reads 126 nM.
